Assay results: patent publication US8426449B2, “Aminoalkylphenyl antagonists of prostaglandin D2 receptors” (Panmira Pharmaceuticals, LLC, priority 2008, dated 2013)

What follows are compounds tested against T1, human DP2 receptor (Homo sapiens, UniProt Q9Y5Y4) (assay: DP2/CRTH2 radioligand binding assay using [3H]PGD2). Conditions: hDP2 (CRTH2) binding assay, membranes of HEK293 cells expressing recombinant human DP2.
T1 construct: expressed in transfected cells
T1 sequence (Q9Y5Y4 1-395): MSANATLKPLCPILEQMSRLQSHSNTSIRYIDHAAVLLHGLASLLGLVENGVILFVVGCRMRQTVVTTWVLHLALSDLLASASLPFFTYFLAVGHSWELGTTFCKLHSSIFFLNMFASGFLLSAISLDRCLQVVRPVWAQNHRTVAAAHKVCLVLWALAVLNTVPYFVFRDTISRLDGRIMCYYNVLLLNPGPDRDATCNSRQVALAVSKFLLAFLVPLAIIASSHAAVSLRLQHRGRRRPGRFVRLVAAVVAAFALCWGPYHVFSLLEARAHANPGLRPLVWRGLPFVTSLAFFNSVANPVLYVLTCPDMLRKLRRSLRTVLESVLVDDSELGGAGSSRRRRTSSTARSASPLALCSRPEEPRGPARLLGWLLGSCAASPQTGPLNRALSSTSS
Procedure: The ability of a compound to bind to the human DP2 receptor is assessed via a radioligand binding assay using [^3H]PGD2. HEK293 cells stably expressing recombinant human DP2 are resuspended in 10 mM Hepes, 7.4 containing 1 mM DTT, lysed and centrifuged at 75,000×g to pellet the membranes. The membranes are resuspended in 10 mM Hepes, 7.4 containing 1 mM DTT and 10% glycerol to approximately 5 mg protein/ml. Membranes (2-10 μg protein/well) are incubated in 96-well plates with 1 nM [^3H]PGD2 and test compound in Assay Buffer (50 mM Hepes, 10 mM MnCl2, 1 mM EDTA, plus or minus 0.2% human serum albumin, pH 7.4) for 60 minutes at room temperature. The reactions are terminated by rapid filtration through Whatman GF/C glass fibre filter plates. The filter plates were pre-soaked in 0.33% polyethylenimine for 30 minutes at room temperature then washed in Wash Buffer (50 mM Hepes, 0.5 M NaCl pH 7.4) prior to harvesting. After harvesting, the filter plates are washed 3 times with 1 ml cold Wash Buffer then dried. Scintillant is then added to the plates and the radioactivity retained on the filters is determined on a Packard TopCount (Perkin Elmer). Specific binding is determined as total radioactive binding minus non-specific binding in the presence of 10 μM PGD2. IC50s were determined using GraphPad prism analysis of drug titration curves.

| IC50 [nM] | Compound |
| --- | --- |
| < 300 | CN(Cc1cc(C(F)(F)F)ccc1Oc1cccc(CC(=O)O)c1)S(=O)(=O)c1ccc(Cl)cc1 [Compound 1-23, [3-(2-{[(4-Chloro-benzenesulfonyl)-methyl-amino]-methyl}-4-trifluoromethyl-phenoxy)-phenyl]-acetic acid] |
| < 300 | COc1ccc(CC(=O)O)cc1Oc1ccc(Br)cc1CN(Cc1ccccc1)C(C)=O [Compound 1-9, (3-{2-[(Acetyl-benzyl-amino)-methyl]-4-bromo-phenoxy}-4-methoxy-phenyl)-acetic acid] |
| < 300 | CCN(Cc1cc(NC(=O)c2ccc(Cl)cc2)ccc1Oc1cc(CC(=O)O)ccc1OC)C(=O)OCc1ccccc1 [Compound 1-44, {3-[2-[(Benzyloxycarbonyl-ethyl-amino)-methyl]-4-(4-chloro-benzoylamino)-phenoxy]-4-methoxy-phenyl}-acetic acid] |
| < 300 | CCN(Cc1cc(C(F)(F)F)ccc1Oc1cccc(CC(=O)O)c1)S(=O)(=O)c1ccc(Br)cc1 [Compound 1-31, [3-(2-{[(4-Bromo-benzenesulfonyl)-ethyl-amino]-methyl}-4-trifluoromethyl-phenoxy)-phenyl]-acetic acid] |
| < 300 | CCN(Cc1cc(C(F)(F)F)ccc1Oc1cccc(CC(=O)O)c1)C(=O)c1ccccc1 [Compound 1-17, (3-{2-[(Benzoyl-ethyl-amino)-methyl]-4-trifluoromethyl-phenoxy}-phenyl)-acetic acid] |
| > 1000 | COC(=O)N(Cc1cc(N(C)S(C)(=O)=O)ccc1Oc1cccc(C(C)C(=O)O)c1)[C@@H](C)Cc1ccccc1 (stereo partly drawn) [Compound 1-43, 2-[3-(4-(Methanesulfonyl-methyl-amino)-2-{[methoxycarbonyl-((S)-1-methyl-2-phenyl-ethyl)-amino]-methyl}-phenoxy)-phenyl]-propionic acid] |
| < 300 | COC(=O)N(Cc1cc(C(F)(F)F)ccc1Oc1cccc(CC(=O)O)c1)C1Cc2ccccc2C1 [Compound 1-20, (3-{2-[(Indan-2-yl-methoxycarbonyl-amino)-methyl]-4-trifluoromethyl-phenoxy}-phenyl)-acetic acid] |
| < 300 | COC(=O)N(CCc1ccccc1)Cc1cc(Br)ccc1Oc1cccc(CC(=O)O)c1 [Compound 1-4, (3-{4-Bromo-2-[(methoxycarbonyl-phenethyl-amino)-methyl]-phenoxy}-phenyl)-acetic acid] |
| > 1000 | C[C@H](NCc1cc(C(F)(F)F)ccc1Oc1cccc(CC(=O)O)c1)[C@H](O)c1ccccc1 [Compound 1-12, (3-{2-[((1S,2R)-2-Hydroxy-1-methyl-2-phenyl-ethylamino)-methyl]-4-trifluoromethyl-phenoxy}-phenyl)-acetic acid] |
| < 300 | COC(=O)N(Cc1ccccc1)Cc1cc(C(F)(F)F)ccc1Oc1cc(CC(=O)O)ccc1OC [Compound 1-37, (3-{2-[(Benzyl-methoxycarbonyl-amino)-methyl]-4-trifluoromethyl-phenoxy}-4-methoxy-phenyl)-acetic acid] |
| < 300 | CCN(Cc1cc(C(F)(F)F)ccc1Oc1cccc(CC(=O)O)c1)S(=O)(=O)c1ccc(OC)cc1 [Compound 1-26, [3-(2-{[Ethyl-(4-methoxy-benzenesulfonyl)-amino]-methyl}-4-trifluoromethyl-phenoxy)-phenyl]-acetic acid] |
